Active and inactive are the calls of the source. No cut-off for these calls is given here.
What was measured:
[1] = molecular target: T1, Tyrosinase (Agaricus bisporus, UniProt O42713); assay: Inhibition of mushroom tyrosinase assessed as reduction in dopachrome formation using L-DOPA as substrate preincubated for 10 mins followed by substrate addition and further incubated for 20 mins by microplate reader assay
T1 sequence (O42713 whole entry): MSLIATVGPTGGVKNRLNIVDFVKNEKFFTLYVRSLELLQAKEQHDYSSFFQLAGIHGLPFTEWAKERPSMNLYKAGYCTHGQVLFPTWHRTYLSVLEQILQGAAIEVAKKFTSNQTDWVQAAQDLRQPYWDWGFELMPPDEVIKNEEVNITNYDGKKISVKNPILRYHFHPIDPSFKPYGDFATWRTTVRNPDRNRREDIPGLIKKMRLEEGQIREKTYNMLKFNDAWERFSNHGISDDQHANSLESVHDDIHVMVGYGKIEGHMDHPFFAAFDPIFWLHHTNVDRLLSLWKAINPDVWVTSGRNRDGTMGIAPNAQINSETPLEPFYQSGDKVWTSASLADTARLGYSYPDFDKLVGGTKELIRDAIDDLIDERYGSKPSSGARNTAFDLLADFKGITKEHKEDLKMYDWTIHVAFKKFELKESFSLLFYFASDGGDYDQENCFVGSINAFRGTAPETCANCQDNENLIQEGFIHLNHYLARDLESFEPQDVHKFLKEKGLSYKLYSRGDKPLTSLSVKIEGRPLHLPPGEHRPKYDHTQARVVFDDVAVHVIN

[2] = Cytotoxicity against mouse B16F10 cells assessed as cell viability at 40 ug/ml incubated for 24 hrs by MTT assay relative to control; assay type: cell-based, B16-F10; settings: read-out: Activity
[3] = Cytotoxicity against mouse B16F10 cells assessed as cell viability at 30 ug/ml incubated for 24 hrs by MTT assay relative to control; assay type: cell-based, B16-F10; settings: read-out: Activity
[4] = test system: B16-F10; assay: Cytotoxicity against mouse B16F10 cells assessed as effect on cell morphology at 20 to 60 ug/ml incubated for 24 hrs by fluorescent inverted microscopy analysis; assay type: cell-based; settings: b16-f10, 24 h
[5] = molecular target: T2, Tyrosinase (Mus musculus) (UniProt P11344); assay: Inhibition of tyrosinase in mouse B16F10 cells assessed as alpha-MSH-stimulated melanogenesis measured as melanin content at 25 to 30 ug/ml measured after 24 hrs in presence of alpha-MSH by microplate reader analysis; assay type: cell-based
T2 sequence (whole entry): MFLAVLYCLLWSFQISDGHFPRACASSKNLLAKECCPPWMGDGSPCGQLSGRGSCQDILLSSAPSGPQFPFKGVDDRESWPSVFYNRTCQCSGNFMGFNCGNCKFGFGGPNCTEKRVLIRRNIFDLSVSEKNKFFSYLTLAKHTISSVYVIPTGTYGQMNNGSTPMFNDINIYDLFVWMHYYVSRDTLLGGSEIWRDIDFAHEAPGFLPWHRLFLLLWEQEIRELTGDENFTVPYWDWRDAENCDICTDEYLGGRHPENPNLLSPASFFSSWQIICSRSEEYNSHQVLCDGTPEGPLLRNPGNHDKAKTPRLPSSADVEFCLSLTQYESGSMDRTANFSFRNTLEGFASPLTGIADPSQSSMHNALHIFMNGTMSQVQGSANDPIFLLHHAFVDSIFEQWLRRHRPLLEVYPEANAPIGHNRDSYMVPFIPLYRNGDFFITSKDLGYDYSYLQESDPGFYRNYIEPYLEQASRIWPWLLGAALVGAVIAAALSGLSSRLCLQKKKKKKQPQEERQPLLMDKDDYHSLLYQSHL

[6] = molecular target: T2, Tyrosinase (Mus musculus); assay: Inhibition of tyrosinase in mouse B16F10 cells assessed as transformation of L-DOPA into dopachrome measured after 24 hrs by microplate reader analysis; assay type: cell-based
[7] = molecular target: T1, Tyrosinase

IC50 [1] [µM]	Structure (SMILES)	further results
39.4	COc1cccc(OC(=O)COC(=O)/C=C/c2ccccc2)c1	–
124	O=C(/C=C/c1ccc(O)cc1)OCC(=O)Oc1ccc2ccc(=O)oc2c1	–
338	COc1cccc(OC(=O)COC(=O)c2ccc(O)cc2)c1	–
5.7	COc1cccc(OC(=O)COC(=O)/C=C/c2ccc(O)cc2)c1	viability at 24 h, 40 ug/ml [2]: > 95%; viability at 24 h, 30 ug/ml [3]: > 99%; Activity [4]: Non-Toxic; inhibition [5]: Active; inhibition [6]: Dose-dependent effect; Ki [7]: 11 µM
315	COc1cccc(OC(=O)COC(=O)c2cccc(O)c2)c1	–
299	COc1cccc(OC(=O)COC(=O)c2ccc(O)c(O)c2)c1	–
173	COc1cccc(OC(=O)COC(=O)/C=C/c2ccccc2O)c1	–
193	COc1cccc(OC(=O)COC(=O)c2cc(O)cc(O)c2)c1	–
23.8	COc1cccc(OC(=O)COC(=O)c2ccc(O)cc2O)c1	Ki [7]: 130 µM

Reference: ChEMBL document CHEMBL4342432, “Hydroxyl substituted benzoic acid/cinnamic acid derivatives: Tyrosinase inhibitory kinetics, anti-melanogenic activity and molecular docking studies” (Bioorg Med Chem Lett, 2020)
